Data published in patent US7045510B2, “Methods for prevention and treatment of mastitis” (priority 2004, dated 2006).

Columns and labels:
[1] = system: intramammary infections (mastitis); assay: Intramammary infection status before dry-off and after calving, all 4 quarters infused at dry-off; assay type: in vivo, cows; conditions: for new infections (quarters infected during the dry period) / old infections (quarters remaining infected after calving): group total after calving; for infected quarters at dry-off: baseline before infusion
Method: (§1) Experimental Design: At dry-off all quarters of even numbered cows (n=39) were infused with antibiotics (Cefa-Dri (Fort Dodge Animal Health, Fort Dodge, Iowa 50501) containing 300 mg cephapirin […] in peanut oil) approved for use by FDA. All quarters of odd numbered cows (n=40) were infused with dextran (total dose 100 mg DEAE-dextran (Sigma Chemical Co. St. Louis, Mo.)) in 1 ml of sterile filtered distilled water and suspended in 9 ml of peanut oil (Sigma).

[2] = Milk yield in the subsequent lactation after infusion at dry-off; assay type: in vivo, cows; conditions: for Mean yearly milk yield: mean per cow of the group
Method: as §1

[3] = system: milk somatic cell concentration (SCC); assay: Milk somatic cell concentration (SCC) after intramammary infusion at drying-off; assay type: in vivo, dairy cows
Method: as §1
Mammary quarters of 4 dairy cows at drying-off were infused with either 100 mg of DEAE-dextran, peanut oil, or were uninfused. Secretions were collected at 0, 24, 48, 72, 96, and 120 hours post infusion for determination of milk somatic cell concentration.

Q: What does the source list for diethylaminoethyl-dextran?
A: new infections (quarters infected during the dry period) [1]: 26 new infections quarters; old infections (quarters remaining infected after calving) [1]: 17 old infections quarters; new infections (quarters infected during the dry period) ([1]; listed as dextran): 26 quarters; old infections (quarters remaining infected after calving) ([1]; listed as dextran): 17 quarters; infected quarters at dry-off ([1]; group total): 38 quarters infected; infected quarters at dry-off ([1]; group total, listed as dextran): 38 quarters; total infections after calving ([1]; group total, old plus new): 43 infections; net gain of intramammary infections ([1]; total after calving compared to infected quarters at dry-off): 5 infections; milk yield per cow more than cows that received antibiotics [2]: approximately 700 pounds; Mean yearly milk yield [2]: Mean 26029 pounds; Mean yearly milk yield ([2]; listed as dextran): 26,029 pounds; milk somatic cell count ([3]; 0 hour, quarters of 4 dairy cows infused with 100 mg at drying-off): 129000 mL⁻¹; milk somatic cell count ([3]; 24 hours post infusion, 100 mg per quarter at drying-off): 19,591 ×10^3/ml; milk somatic cell count ([3]; 72 hours post infusion, 100 mg per quarter at drying-off): 8,000 ×10^3/ml; milk somatic cell concentration (SCC) increased to ([3]; total dose 100 mg in 1 ml water suspended in 9 ml peanut oil (FIG. 1)): one million; clinical symptoms (swelling, elevated body temperature, redness of udder, pain) ([3]; total dose 100 mg intramammary): no clinical symptoms
